The compounds below were run against Nitric oxide synthase 1 (Rattus norvegicus, UniProt P29476) (assay: Inhibitory activity against recombinant rat nNOS.).
Nitric oxide synthase 1, sequence (P29476 whole entry): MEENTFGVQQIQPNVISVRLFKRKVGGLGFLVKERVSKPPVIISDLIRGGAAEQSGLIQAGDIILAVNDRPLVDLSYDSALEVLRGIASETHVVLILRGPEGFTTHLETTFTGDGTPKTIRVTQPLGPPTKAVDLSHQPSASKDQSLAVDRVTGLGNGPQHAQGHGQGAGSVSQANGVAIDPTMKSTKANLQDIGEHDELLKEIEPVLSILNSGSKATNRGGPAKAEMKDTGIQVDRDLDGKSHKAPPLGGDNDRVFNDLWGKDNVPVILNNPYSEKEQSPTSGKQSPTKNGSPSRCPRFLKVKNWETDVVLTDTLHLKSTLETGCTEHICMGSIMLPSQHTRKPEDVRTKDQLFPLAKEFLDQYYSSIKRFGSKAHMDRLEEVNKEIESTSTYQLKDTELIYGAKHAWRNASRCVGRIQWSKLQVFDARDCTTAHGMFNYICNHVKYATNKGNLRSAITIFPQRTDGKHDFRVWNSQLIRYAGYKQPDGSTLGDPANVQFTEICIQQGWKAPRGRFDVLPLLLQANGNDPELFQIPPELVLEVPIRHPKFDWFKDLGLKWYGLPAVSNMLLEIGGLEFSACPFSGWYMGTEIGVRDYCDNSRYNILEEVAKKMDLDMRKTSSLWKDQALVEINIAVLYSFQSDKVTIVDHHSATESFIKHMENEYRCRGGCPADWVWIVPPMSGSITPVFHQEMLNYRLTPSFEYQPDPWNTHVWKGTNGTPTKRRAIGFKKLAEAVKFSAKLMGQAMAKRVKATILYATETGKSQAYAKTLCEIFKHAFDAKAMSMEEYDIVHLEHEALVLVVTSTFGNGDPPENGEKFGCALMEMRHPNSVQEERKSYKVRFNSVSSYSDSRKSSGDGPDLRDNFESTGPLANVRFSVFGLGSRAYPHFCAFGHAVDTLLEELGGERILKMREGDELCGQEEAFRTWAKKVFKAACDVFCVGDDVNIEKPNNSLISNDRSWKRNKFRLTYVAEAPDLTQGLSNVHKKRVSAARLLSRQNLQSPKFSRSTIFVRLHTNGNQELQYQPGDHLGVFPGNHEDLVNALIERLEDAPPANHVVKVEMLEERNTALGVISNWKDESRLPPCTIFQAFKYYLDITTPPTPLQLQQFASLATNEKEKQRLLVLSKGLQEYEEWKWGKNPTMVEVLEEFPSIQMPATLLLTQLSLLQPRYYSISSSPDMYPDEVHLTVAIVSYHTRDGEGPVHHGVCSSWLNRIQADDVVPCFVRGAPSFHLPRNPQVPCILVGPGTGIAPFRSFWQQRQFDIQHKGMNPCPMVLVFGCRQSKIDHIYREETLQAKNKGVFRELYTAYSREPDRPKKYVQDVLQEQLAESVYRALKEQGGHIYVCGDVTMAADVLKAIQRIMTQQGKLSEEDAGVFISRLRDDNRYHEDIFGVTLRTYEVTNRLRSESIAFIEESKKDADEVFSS
With `N=C(NCCC[C@H](N)C(=O)NCCN)N[N+](=O)[O-]` the Ki was 540 nM.
`N=C(NCCC[C@H](N)C(=O)NCCCCN)N[N+](=O)[O-]` was tested, and the Ki was 350 nM.
Compound `N=C(NCCC[C@H](N)C(=O)NCCCN)N[N+](=O)[O-]` has a Ki of 460 nM.
